Among the data in ChEMBL document CHEMBL5678807, “A selective jumonji H3K27 demethylase inhibitor modulates the proinflammatory macrophage response” (Nature, 2012) are XC50, Activity and Drug uptake values, retold here.

Where only a bound is given, the exact number is not on record here.

In series [1] the target is T1, Muscarinic acetylcholine receptor M2 (Homo sapiens, UniProt P08172).
T1 sequence (P08172 whole entry): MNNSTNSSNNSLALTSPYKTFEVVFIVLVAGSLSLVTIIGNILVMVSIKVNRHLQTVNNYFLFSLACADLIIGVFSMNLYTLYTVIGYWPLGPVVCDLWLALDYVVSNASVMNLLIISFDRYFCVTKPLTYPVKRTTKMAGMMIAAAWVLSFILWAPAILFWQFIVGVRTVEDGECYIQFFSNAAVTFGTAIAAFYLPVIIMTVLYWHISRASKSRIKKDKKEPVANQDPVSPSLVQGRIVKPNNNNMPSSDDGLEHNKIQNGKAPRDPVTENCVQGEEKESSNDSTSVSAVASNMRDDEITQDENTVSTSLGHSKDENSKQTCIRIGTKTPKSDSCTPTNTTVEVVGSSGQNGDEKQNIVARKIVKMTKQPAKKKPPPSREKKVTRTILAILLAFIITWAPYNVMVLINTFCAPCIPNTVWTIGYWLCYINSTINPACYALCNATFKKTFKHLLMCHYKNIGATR
The series is described as follows: Agonist activity at human CHRM2 by intracellular Ca fluorescence assay. Type of series: functional, cell-based.

The target in series [2] is Sodium channel protein type 5 subunit alpha (Homo sapiens, UniProt Q14524). The series is described as follows: Blockade of human NaV1.5 by electrophysiology assay.
Series [3] in a line: Antagonist activity at human NR1A/NR2B by intracellular Ca fluorescence assay. Type of series: cell-based.
Series [4] concerns Macrophage. The series is described as follows: Cytotoxicity against LPS-induced human primary macrophages assessed as effect on cell viability measured after 4 hrs by WST-1 assay. In kind it is toxicity, cell-based. For orientation: Tetrazolium assays rely on reduction of a dye to a coloured formazan, in cell work by metabolically active cells.
Series [5] addresses T1, Muscarinic acetylcholine receptor M2. The series is described as follows: Antagonist activity at human CHRM2 by intracellular Ca fluorescence assay. In kind it is functional, cell-based.
Series [6] concerns the target PXR (NR1I2) (Homo sapiens, UniProt O75469). The series is described as follows: Agonist activity at human PXR by luciferase reporter assay. (Reporter assays use an easily measured gene product as a stand-in for the process of interest.)
Series [7] has as its target Histone deacetylase 11 (Homo sapiens, UniProt Q96DB2). The series is described as follows: Inhibition of human HDAC11 by FLINT assay.
For series [8], the target named is 3',5'-cyclic-AMP phosphodiesterase 4B (Homo sapiens, UniProt Q07343). The series is described as follows: Inhibition of human PDE4B by luminescence assay.
Chain of 3',5'-cyclic-AMP phosphodiesterase 4B (Q07343 whole entry): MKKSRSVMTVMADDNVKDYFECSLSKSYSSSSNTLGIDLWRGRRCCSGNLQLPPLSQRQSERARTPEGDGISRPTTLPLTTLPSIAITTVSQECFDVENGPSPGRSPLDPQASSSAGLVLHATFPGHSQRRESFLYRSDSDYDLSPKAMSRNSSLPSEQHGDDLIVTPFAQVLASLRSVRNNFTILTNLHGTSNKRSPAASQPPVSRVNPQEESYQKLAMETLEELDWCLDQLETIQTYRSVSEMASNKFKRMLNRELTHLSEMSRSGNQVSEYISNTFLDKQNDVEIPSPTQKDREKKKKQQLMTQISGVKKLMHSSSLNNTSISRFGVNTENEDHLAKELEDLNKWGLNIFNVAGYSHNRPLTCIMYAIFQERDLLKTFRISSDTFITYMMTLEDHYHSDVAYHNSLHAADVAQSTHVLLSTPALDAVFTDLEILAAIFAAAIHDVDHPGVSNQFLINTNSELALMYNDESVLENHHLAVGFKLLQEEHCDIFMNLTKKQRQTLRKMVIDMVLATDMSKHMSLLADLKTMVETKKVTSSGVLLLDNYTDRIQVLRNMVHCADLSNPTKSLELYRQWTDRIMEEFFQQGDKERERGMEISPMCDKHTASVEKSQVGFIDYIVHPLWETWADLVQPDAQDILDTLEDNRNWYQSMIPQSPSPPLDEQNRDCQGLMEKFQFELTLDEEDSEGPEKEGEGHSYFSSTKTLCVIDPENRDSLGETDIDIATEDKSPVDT
In series [9] the target is Substance-P receptor (Homo sapiens, UniProt P25103). The series is described as follows: Antagonist activity at human NK-1 by intracellular Ca luminescence assay. In kind it is functional, cell-based.
Chain of Substance-P receptor (P25103 whole entry): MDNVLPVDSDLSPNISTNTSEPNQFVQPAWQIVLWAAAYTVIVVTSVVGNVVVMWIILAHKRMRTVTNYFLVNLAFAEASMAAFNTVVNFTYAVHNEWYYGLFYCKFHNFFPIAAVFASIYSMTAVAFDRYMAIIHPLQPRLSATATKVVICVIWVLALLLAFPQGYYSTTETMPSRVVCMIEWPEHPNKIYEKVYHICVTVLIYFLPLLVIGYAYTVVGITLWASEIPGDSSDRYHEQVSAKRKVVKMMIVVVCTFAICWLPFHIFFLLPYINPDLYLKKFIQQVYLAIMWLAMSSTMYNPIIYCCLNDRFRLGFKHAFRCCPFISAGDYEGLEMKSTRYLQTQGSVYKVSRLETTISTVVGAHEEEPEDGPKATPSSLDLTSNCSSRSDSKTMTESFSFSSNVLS
Series [10] addresses Voltage-dependent L-type calcium channel subunit alpha-1C (Homo sapiens, UniProt Q13936). The series is described as follows: Antagonist activity at human CaV1.2 (L-type) by intracellular Ca fluorescence assay. Type of series: cell-based.
For series [11], the target named is 5-hydroxytryptamine receptor 2A (Homo sapiens, UniProt P28223). The series is described as follows: Antagonist activity at human 5-HT2A by intracellular Ca luminescence assay. Type of series: functional, cell-based.
Series [12] concerns the target Histone deacetylase 5 (Homo sapiens, UniProt Q9UQL6). The series is described as follows: Inhibition of human HDAC5 by FLINT assay.
A short description of series [13]: Drug uptake in human primary macrophage lysates at 30 uM measured after 1 hr by RP LC-MS/MS analysis. In kind it is ADME, subcellular.
Series [14] concerns the target hERG (KCNH2) (Homo sapiens, UniProt Q12809). The series is described as follows: Binding affinity to human ERG by FP binding assay. In kind it is toxicity.
Series [15] has as its target Amine oxidase [flavin-containing] A (Homo sapiens, UniProt P21397). The series is described as follows: Inhibition of human MAOA by FLINT assay.
In series [16] the target is Polyamine deacetylase HDAC10 (Homo sapiens, UniProt Q969S8). The series is described as follows: Inhibition of human HDAC10 by FLINT assay.
Chain of Polyamine deacetylase HDAC10 (Q969S8 whole entry): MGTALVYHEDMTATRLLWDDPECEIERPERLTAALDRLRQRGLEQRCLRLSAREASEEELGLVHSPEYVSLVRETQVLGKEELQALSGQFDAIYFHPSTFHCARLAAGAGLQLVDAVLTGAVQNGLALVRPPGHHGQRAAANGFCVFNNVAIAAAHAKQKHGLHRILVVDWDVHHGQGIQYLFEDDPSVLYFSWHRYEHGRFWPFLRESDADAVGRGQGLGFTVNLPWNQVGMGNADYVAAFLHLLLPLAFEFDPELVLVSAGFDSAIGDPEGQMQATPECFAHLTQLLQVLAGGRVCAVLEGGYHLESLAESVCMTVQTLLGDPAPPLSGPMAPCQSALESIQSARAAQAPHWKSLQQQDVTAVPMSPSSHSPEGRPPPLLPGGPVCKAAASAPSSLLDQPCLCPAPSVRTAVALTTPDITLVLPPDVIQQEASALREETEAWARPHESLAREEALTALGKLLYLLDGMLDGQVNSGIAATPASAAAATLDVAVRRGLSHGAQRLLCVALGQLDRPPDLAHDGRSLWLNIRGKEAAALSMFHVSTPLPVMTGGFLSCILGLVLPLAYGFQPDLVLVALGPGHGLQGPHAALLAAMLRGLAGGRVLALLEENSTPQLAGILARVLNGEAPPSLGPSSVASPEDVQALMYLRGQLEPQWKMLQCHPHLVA
The target of series [17] is Kappa-type opioid receptor (Homo sapiens, UniProt P41145). The series is described as follows: Agonist activity at human OPRK-1 by SPA. In kind it is functional.
For series [18], the target named is Cannabinoid receptor 2 (Homo sapiens, UniProt P34972). The series is described as follows: Agonist activity at human cannabinoid CB2 receptor by Yeast FDGlu assay. In kind it is functional.
Chain of Cannabinoid receptor 2 (P34972 whole entry): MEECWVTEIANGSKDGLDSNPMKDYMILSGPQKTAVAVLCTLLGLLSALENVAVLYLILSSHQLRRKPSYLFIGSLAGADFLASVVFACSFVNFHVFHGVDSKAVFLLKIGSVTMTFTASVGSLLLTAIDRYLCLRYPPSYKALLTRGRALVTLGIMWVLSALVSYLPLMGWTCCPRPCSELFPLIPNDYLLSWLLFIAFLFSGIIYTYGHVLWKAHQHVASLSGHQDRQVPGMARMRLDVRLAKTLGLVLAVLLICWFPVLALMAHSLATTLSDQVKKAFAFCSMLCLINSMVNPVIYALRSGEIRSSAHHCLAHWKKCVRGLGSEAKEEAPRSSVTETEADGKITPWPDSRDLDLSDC
Series [19] concerns the target D(2) dopamine receptor (Homo sapiens, UniProt P14416). The series is described as follows: Agonist activity at human dopamine 2 by SPA. In kind it is functional.
Series [20] concerns the target Histone deacetylase 7 (Homo sapiens, UniProt Q8WUI4). The series is described as follows: Inhibition of human HDAC7 by FLINT assay.
For series [21], the system named is Macrophage. The series is described as follows: Antiinflammatory activity in human primary macrophages assessed as effect on LPS-induced IFNA1 gene expression at 30 uM measured after 2 hrs by RT-PCR array (reference value: 462 a.u.). In kind it is functional.
The subject of series [22] is Macrophage. The series is described as follows: Antiinflammatory activity in human primary macrophages assessed as effect on LPS-induced PDGFA gene expression at 30 uM measured after 2 hrs by RT-PCR array (reference value: 235 a.u.). Type of series: functional.
Series [23] has as its system Macrophage. The series is described as follows: Antiinflammatory activity in human primary macrophages assessed as effect on LPS-induced IFNG gene expression at 30 uM measured after 2 hrs by RT-PCR array (reference value: 240 a.u.). In kind it is functional.
Series [24] relates to Macrophage. The series is described as follows: Antiinflammatory activity in human primary macrophages assessed as effect on LPS-induced IL1B gene expression at 30 uM measured after 2 hrs by RT-PCR array (reference value: 15266918 a.u.). In kind it is functional.
Series [25] has as its system Macrophage. The series is described as follows: Antiinflammatory activity in human primary macrophages assessed as effect on LPS-induced BMP6 gene expression at 30 uM measured after 2 hrs by RT-PCR array (reference value: 1526 a.u.). Type of series: functional.
For series [26], the system named is Macrophage. The series is described as follows: Antiinflammatory activity in human primary macrophages assessed as effect on LPS-induced INHBA gene expression at 30 uM measured after 2 hrs by RT-PCR array (reference value: 785853 a.u.). In kind it is functional.
For series [27], the system named is Macrophage. The series is described as follows: Antiinflammatory activity in human primary macrophages assessed as effect on LPS-induced IL18 gene expression at 30 uM measured after 2 hrs by RT-PCR array (reference value: 153374 a.u.). Type of series: functional.
Series [28] relates to Macrophage. The series is described as follows: Antiinflammatory activity in human primary macrophages assessed as effect on LPS-induced IL19 gene expression at 30 uM measured after 2 hrs by RT-PCR array (reference value: 13781 a.u.). In kind it is functional.
Series [29] relates to Macrophage. The series is described as follows: Antiinflammatory activity in human primary macrophages assessed as effect on LPS-induced IL6 gene expression at 30 uM measured after 2 hrs by RT-PCR array (reference value: 3511720 a.u.). In kind it is functional.
The subject of series [30] is Macrophage. The series is described as follows: Antiinflammatory activity in human primary macrophages assessed as effect on LPS-induced IL8 gene expression at 30 uM measured after 2 hrs by RT-PCR array (reference value: 11155386 a.u.). Type of series: functional.
The test system of series [31] is Macrophage. The series is described as follows: Antiinflammatory activity in human primary macrophages assessed as effect on LPS-induced IL1A gene expression at 30 uM measured after 2 hrs by RT-PCR array (reference value: 1292761 a.u.). Type of series: functional.
For series [32], the system named is Macrophage. The series is described as follows: Antiinflammatory activity in human primary macrophages assessed as effect on LPS-induced TNFSF10 gene expression at 30 uM measured after 2 hrs by RT-PCR array (reference value: 221027 a.u.). In kind it is functional.

Chain of Histone deacetylase 7 (Q8WUI4 whole entry): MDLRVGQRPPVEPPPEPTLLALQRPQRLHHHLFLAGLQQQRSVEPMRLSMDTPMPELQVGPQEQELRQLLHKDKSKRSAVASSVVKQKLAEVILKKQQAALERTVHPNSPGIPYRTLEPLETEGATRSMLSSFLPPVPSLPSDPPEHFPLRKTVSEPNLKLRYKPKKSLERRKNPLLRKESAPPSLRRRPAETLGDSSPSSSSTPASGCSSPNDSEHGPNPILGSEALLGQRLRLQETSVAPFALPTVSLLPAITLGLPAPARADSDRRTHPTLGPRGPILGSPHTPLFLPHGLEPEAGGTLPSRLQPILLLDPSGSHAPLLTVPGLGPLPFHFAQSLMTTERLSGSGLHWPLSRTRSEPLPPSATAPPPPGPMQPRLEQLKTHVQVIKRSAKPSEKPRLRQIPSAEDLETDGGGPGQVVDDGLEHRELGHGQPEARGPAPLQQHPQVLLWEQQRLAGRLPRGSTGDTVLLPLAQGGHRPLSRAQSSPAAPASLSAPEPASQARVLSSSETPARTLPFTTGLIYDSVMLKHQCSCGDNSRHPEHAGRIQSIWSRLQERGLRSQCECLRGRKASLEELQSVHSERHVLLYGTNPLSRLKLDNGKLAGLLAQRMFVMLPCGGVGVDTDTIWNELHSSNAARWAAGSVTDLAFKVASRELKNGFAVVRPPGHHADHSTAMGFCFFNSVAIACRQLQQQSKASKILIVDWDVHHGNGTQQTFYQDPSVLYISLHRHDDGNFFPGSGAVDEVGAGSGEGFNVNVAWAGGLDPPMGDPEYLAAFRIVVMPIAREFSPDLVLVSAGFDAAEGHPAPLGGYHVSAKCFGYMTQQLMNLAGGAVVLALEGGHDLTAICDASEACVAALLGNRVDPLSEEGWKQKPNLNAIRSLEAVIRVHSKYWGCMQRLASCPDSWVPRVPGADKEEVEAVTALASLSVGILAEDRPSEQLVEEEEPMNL
Chain of Histone deacetylase 11 (Q96DB2 whole entry): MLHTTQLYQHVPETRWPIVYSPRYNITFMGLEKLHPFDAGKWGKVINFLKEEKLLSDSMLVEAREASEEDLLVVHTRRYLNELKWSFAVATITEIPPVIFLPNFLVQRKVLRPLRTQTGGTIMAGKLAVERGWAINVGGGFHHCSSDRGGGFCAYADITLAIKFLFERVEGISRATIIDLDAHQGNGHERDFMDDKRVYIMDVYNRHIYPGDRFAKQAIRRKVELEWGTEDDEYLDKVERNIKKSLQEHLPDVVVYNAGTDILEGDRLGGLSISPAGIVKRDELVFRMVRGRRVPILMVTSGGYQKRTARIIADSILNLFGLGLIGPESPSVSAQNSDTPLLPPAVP
Chain of Histone deacetylase 5 (Q9UQL6 whole entry): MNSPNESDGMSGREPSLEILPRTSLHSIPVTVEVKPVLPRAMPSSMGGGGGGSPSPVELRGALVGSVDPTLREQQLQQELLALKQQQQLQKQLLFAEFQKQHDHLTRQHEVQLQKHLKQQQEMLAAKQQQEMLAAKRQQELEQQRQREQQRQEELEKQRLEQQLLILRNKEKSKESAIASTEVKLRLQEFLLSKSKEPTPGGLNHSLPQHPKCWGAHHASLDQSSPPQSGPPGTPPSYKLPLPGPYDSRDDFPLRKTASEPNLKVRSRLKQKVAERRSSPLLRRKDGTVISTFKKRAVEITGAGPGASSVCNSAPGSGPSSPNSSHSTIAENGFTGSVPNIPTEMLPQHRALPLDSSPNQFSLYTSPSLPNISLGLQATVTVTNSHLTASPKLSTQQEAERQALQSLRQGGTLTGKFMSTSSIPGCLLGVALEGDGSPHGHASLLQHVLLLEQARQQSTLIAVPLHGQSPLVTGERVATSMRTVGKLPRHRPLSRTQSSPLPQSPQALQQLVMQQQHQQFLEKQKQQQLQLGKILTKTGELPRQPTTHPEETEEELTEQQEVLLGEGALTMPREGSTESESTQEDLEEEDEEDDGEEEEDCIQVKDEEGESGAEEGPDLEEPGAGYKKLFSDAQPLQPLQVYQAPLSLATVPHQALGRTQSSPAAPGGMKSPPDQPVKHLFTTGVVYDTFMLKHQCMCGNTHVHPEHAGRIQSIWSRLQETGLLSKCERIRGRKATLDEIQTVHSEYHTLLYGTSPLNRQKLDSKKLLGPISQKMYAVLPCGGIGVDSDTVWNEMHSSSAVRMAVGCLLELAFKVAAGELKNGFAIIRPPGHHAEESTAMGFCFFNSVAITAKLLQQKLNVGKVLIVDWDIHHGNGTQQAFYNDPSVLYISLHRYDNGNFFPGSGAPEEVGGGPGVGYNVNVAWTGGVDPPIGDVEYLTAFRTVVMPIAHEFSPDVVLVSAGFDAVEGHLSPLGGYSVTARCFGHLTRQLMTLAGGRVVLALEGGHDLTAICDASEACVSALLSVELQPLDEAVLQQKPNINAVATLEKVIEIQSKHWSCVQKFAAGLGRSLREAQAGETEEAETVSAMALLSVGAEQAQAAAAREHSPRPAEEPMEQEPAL
Chain of D(2) dopamine receptor (P14416 whole entry): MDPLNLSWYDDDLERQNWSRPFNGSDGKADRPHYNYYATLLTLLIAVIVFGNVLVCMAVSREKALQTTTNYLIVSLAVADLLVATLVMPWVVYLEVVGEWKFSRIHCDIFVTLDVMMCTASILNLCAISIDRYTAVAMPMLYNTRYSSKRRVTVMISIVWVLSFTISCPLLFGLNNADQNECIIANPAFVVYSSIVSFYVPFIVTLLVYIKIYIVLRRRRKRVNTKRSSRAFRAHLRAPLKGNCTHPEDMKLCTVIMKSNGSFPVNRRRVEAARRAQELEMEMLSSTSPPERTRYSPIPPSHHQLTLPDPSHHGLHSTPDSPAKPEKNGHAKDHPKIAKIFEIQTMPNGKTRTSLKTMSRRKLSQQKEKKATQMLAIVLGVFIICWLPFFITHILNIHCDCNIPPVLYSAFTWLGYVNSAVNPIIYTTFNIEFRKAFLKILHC

Regarding `O=C(O)CCNc1cc(N2CCc3ccccc3CC2)nc(-c2ccccn2)n1`, the XC50 is above 16 µM in [1]; 79 µM in series [2]; above 50 µM in series [3]; above 16 µM in [5]; above 50 µM in series [6]; above 300 µM in series [7]. For the same molecule, the XC50 is 100 µM in [8]; above 40 µM in series [9]; above 16 µM in [10]; above 40 µM in series [11]; above 300 µM in series [12]; 32 µM in [14]. For the same molecule, the XC50 was 50 µM in series [15]; above 300 µM in series [16]; above 100 µM in series [17]; above 32 µM in series [18]; above 100 µM in [19]; above 300 µM in series [20]. In addition, the Activity entry in series [4] is given as “Non-Toxic”. In addition, the Drug uptake in [13] is 1.6 µM.

With `CCOC(=O)CCNc1cc(N2CCc3ccccc3CC2)nc(-c2cccnc2)n1`, the Activity in [21] is 835 a.u; in [4], “Non-Toxic”; in series [22], 239 a.u; in series [23], 60 a.u; in series [24], 10300355 a.u; in series [25], 1399 a.u. Further, the Activity in [26] stood at 558833 a.u; in [27] it was 185197 a.u; in [28], 1914 a.u; in series [29], 1497395 a.u; in series [30], 5618140 a.u; in [31], 815450 a.u. The Activity in series [32] amounted to 132521 a.u.

For `O=C(O)CCNc1cc(N2CCc3ccccc3CC2)nc(-c2cccnc2)n1`, the XC50 is above 16 µM in series [1]; 50 µM in series [2]; above 50 µM in series [3]; above 16 µM in series [5]; 10 µM in series [6]; above 300 µM in series [7]. The XC50 was 40 µM in series [8]; above 40 µM in series [9]; above 16 µM in [10]; above 40 µM in series [11]; above 300 µM in series [12]; above 100 µM in series [14]. Moreover, the XC50 is above 100 µM in series [15]; above 300 µM in [16]; above 100 µM in series [17]; above 32 µM in series [18]; above 100 µM in series [19]; above 300 µM in series [20]. Moreover, in series [4], the Activity entry is “Non-Toxic”. The molecule also returned a Drug uptake in [13] of 7.8 µM.

`CCOC(=O)CCNc1cc(N2CCc3ccccc3CC2)nc(-c2ccccn2)n1`: the Activity was 285 a.u in series [21]; “Non-Toxic” in series [4]; 392 a.u in series [22]; 298 a.u in series [23]; 3032303 a.u in series [24]; 293 a.u in series [25]. Moreover, the Activity in [26] came out at 157533 a.u; in series [27], 74923 a.u; in series [28], 1216 a.u; in [29], 242914 a.u; in series [30], 1556795 a.u; in series [31], 170309 a.u. Also, in series [32], the Activity was 39793 a.u.
